Data published in ChEMBL document CHEMBL1201862, “PubChem BioAssay data set” (2004).
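A five-concentration, 48-hour dose response in 96-well plates underlies each endpoint, interpolated linearly between surrounding concentrations. The concentration for 50% growth inhibition is given as GI50.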 Active and inactive are the calls of the source. Rule as the data show it: active = GI50 up to about 1.1 µM and inactive = higher.

Assays:
Test in all cases: DTP human tumour cell line panel, 48 h
[1] = test system: SR
[2] = test system: SF-268
[3] = test system: KM12
[4] = test system: MCF7
[5] = test system: CAKI-1
[6] = test system: HT-29
[7] = test system: NCI-H460
[8] = test system: RPMI-8226
[9] = test system: A549
[10] = test system: HCC 2998
[11] = test system: K562
[12] = test system: HCT-116
[13] = test system: HCT-15
[14] = test system: IGROV-1
[15] = test system: MDA-MB-435
[16] = test system: CCRF-CEM
[17] = test system: OVCAR-8
[18] = test system: BT-549
[19] = test system: DU-145
[20] = test system: M14
[21] = test system: SF-295
[22] = test system: SK-MEL-28
[23] = test system: NCI/ADR-RES
[24] = test system: Hs-578T
[25] = test system: 786-0
[26] = test system: UO-31
[27] = test system: UACC-62
[28] = test system: LOX IMVI
[29] = test system: T47D
[30] = test system: ACHN
[31] = test system: OVCAR-3
[32] = test system: MOLT-4
[33] = test system: A498
[34] = test system: MDA-N
[35] = test system: TK-10
[36] = test system: SF-539
[37] = test system: NCI-H226
[38] = test system: SNB-19
[39] = test system: PC-3
[40] = test system: UACC-257
[41] = test system: OVCAR-5
[42] = test system: NCI-H23
[43] = test system: HOP-92
[44] = test system: SK-MEL-5
[45] = test system: HL-60
[46] = test system: SNB-75
[47] = test system: SK-MEL-2
[48] = test system: SN12C
[49] = test system: HOP-62
[50] = test system: OVCAR-4
[51] = test system: NCI-H522
[52] = test system: MDA-MB-231
[53] = test system: COLO 205
[54] = test system: SW-620
[55] = test system: U-251
[56] = test system: SK-OV-3
[57] = test system: EKVX
[58] = test system: RXF 393
[59] = test system: Malme-3M

CC(=O)OC1(C)C(=O)OC/C2=C/CN(C)CCC(OC(=O)C(O)(C(C)Cl)CC1C)C2=O.c1ccccc1 (stereo unspecified)
GI50 [1]: > 100 µM (inactive)
GI50 [2]: > 100 µM (inactive)
GI50 [3]: > 100 µM (inactive)
GI50 [4]: > 100 µM (inactive)
GI50 [5]: > 100 µM (inactive)
GI50 [6]: > 100 µM (inactive)
GI50 [7]: > 100 µM (inactive)
GI50 [8]: > 100 µM (inactive)
GI50 [9]: > 100 µM (inactive)
GI50 [10]: > 100 µM (inactive)
GI50 [11]: > 100 µM (inactive)
GI50 [12]: > 100 µM (inactive)
GI50 [13]: > 100 µM
GI50 [14]: > 100 µM (inactive)
GI50 [15]: > 100 µM (inactive)
GI50 [16]: > 100 µM (inactive)
GI50 [17]: > 100 µM (inactive)
GI50 [18]: > 100 µM (inactive)
GI50 [19]: > 100 µM (inactive)
GI50 [20]: > 100 µM (inactive)
GI50 [21]: > 100 µM (inactive)
GI50 [22]: > 100 µM (inactive)
GI50 [23]: > 100 µM (inactive)
GI50 [24]: > 100 µM (inactive)
GI50 [25]: > 100 µM (inactive)
GI50 [26]: > 100 µM (inactive)
GI50 [27]: > 100 µM (inactive)
GI50 [28]: > 100 µM (inactive)
GI50 [29]: > 100 µM (inactive)
GI50 [30]: > 100 µM (inactive)
GI50 [31]: > 100 µM (inactive)
GI50 [32]: > 100 µM (inactive)
GI50 [33]: > 100 µM (inactive)
GI50 [34]: > 100 µM (inactive)
GI50 [35]: > 100 µM (inactive)
GI50 [36]: > 100 µM (inactive)
GI50 [37]: > 100 µM (inactive)
GI50 [38]: > 100 µM (inactive)
GI50 [39]: > 100 µM (inactive)
GI50 [40]: > 100 µM (inactive)
GI50 [41]: > 100 µM (inactive)
GI50 [42]: > 100 µM (inactive)
GI50 [43]: > 100 µM (inactive)
GI50 [44]: > 100 µM (inactive)
GI50 [45]: > 100 µM (inactive)
GI50 [46]: > 100 µM (inactive)
GI50 [47]: > 100 µM (inactive)
GI50 [48]: > 100 µM (inactive)
GI50 [49]: > 100 µM (inactive)
GI50 [50]: > 100 µM (inactive)
GI50 [51]: > 100 µM (inactive)
GI50 [52]: > 100 µM (inactive)
GI50 [53]: > 100 µM (inactive)
GI50 [54]: > 100 µM (inactive)
GI50 [55]: > 100 µM (inactive)
GI50 [56]: > 100 µM (inactive)
GI50 [57]: > 100 µM (inactive)

Oc1ccc([C@H]2c3c(O)cc(O)cc3C3c4c(cc(O)cc4[C@@H]2[C@H]2c4cc(O)cc5c4C(c4cc(O)cc(O)c4[C@@H]2c2ccc(O)cc2)[C@@H](c2ccc(O)cc2)O5)O[C@@H]3c2ccc(O)cc2)cc1 (stereo partly specified)
GI50 [1]: 16.9 µM (inactive)
GI50 [2]: 1.61 µM (inactive)
GI50 [3]: 0.0211 µM (active)
GI50 [4]: 0.955 µM (active)
GI50 [5]: > 100 µM (inactive)
GI50 [6]: 0.861 µM (active)
GI50 [7]: 3.89 µM (inactive)
GI50 [8]: 41.4 µM (inactive)
GI50 [9]: 0.634 µM (active)
GI50 [10]: 0.452 µM (active)
GI50 [11]: 35.2 µM (inactive)
GI50 [12]: 0.861 µM (active)
GI50 [13]: > 100 µM
GI50 [14]: 6.73 µM (inactive)
GI50 [15]: 2.59 µM (inactive)
GI50 [16]: 1.53 µM (inactive)
GI50 [17]: 2.69 µM (inactive)
GI50 [18]: > 100 µM (inactive)
GI50 [19]: 2.99 µM (inactive)
GI50 [20]: 6.25 µM (inactive)
GI50 [21]: 3.86 µM (inactive)
GI50 [22]: 0.182 µM (active)
GI50 [23]: > 100 µM (inactive)
GI50 [24]: 0.0497 µM (active)
GI50 [25]: 4.94 µM (inactive)
GI50 [27]: 0.15 µM (active)
GI50 [28]: 2.41 µM (inactive)
GI50 [29]: 0.536 µM (active)
GI50 [30]: 6.93 µM (inactive)
GI50 [31]: 0.569 µM (active)
GI50 [32]: 0.975 µM (active)
GI50 [34]: 0.871 µM (active)
GI50 [35]: > 100 µM (inactive)
GI50 [36]: 0.564 µM (active)
GI50 [37]: > 100 µM (inactive)
GI50 [38]: 3.35 µM (inactive)
GI50 [39]: 0.391 µM (active)
GI50 [40]: 0.356 µM (active)
GI50 [41]: 0.678 µM (active)
GI50 [42]: 0.526 µM (active)
GI50 [44]: 7.41 µM (inactive)
GI50 [58]: 0.0486 µM (active)
GI50 [59]: 0.411 µM (active)
GI50 [45]: 2.48 µM (inactive)
GI50 [46]: 0.5 µM (active)
GI50 [47]: 1.58 µM (inactive)
GI50 [48]: > 100 µM (inactive)
GI50 [49]: 1.09 µM (active)
GI50 [50]: 0.83 µM (active)
GI50 [51]: 7.45 µM (inactive)
GI50 [52]: > 100 µM (inactive)
GI50 [53]: 0.348 µM (active)
GI50 [55]: 3.55 µM (inactive)
GI50 [57]: 0.29 µM (active)

CCOC(=O)c1nc2cc(C(F)(F)F)ccc2nc1Oc1ccc(OC)cc1
GI50 [1]: 74.6 µM (inactive)
GI50 [2]: > 100 µM (inactive)
GI50 [3]: > 100 µM (inactive)
GI50 [4]: > 100 µM (inactive)
GI50 [5]: > 100 µM (inactive)
GI50 [7]: 70.8 µM (inactive)
GI50 [8]: 45.4 µM (inactive)
GI50 [9]: > 100 µM (inactive)
GI50 [10]: > 100 µM (inactive)
GI50 [11]: > 100 µM (inactive)
GI50 [12]: > 100 µM (inactive)
GI50 [13]: > 100 µM
GI50 [14]: > 100 µM (inactive)
GI50 [15]: > 100 µM (inactive)
GI50 [16]: 66.2 µM (inactive)
GI50 [17]: > 100 µM (inactive)
GI50 [18]: > 100 µM (inactive)
GI50 [19]: > 100 µM (inactive)
GI50 [20]: > 100 µM (inactive)
GI50 [21]: > 100 µM (inactive)
GI50 [22]: > 100 µM (inactive)
GI50 [23]: > 100 µM (inactive)
GI50 [24]: > 100 µM (inactive)
GI50 [25]: > 100 µM (inactive)
GI50 [26]: > 100 µM (inactive)
GI50 [27]: > 100 µM (inactive)
GI50 [28]: > 100 µM (inactive)
GI50 [29]: > 100 µM (inactive)
GI50 [30]: > 100 µM (inactive)
GI50 [31]: > 100 µM (inactive)
GI50 [32]: 45.5 µM (inactive)
GI50 [34]: > 100 µM (inactive)
GI50 [35]: > 100 µM (inactive)
GI50 [36]: > 100 µM (inactive)
GI50 [37]: > 100 µM (inactive)
GI50 [38]: > 100 µM (inactive)
GI50 [39]: > 100 µM (inactive)
GI50 [40]: > 100 µM (inactive)
GI50 [41]: > 100 µM (inactive)
GI50 [43]: > 100 µM (inactive)
GI50 [44]: > 100 µM (inactive)
GI50 [58]: 50.9 µM (inactive)
GI50 [59]: > 100 µM (inactive)
GI50 [45]: > 100 µM (inactive)
GI50 [46]: > 100 µM (inactive)
GI50 [47]: > 100 µM (inactive)
GI50 [48]: > 100 µM (inactive)
GI50 [50]: > 100 µM (inactive)
GI50 [51]: 72.4 µM (inactive)
GI50 [52]: > 100 µM (inactive)
GI50 [53]: > 100 µM (inactive)
GI50 [54]: > 100 µM (inactive)
GI50 [55]: > 100 µM (inactive)
GI50 [57]: > 100 µM (inactive)

CCN(CC)CCC(=O)Nc1ccc2sc3ccccc3c(=O)c2n1
GI50 [1]: 15.9 µM (inactive)
GI50 [2]: 17.1 µM (inactive)
GI50 [3]: 16.3 µM (inactive)
GI50 [4]: 13.3 µM (inactive)
GI50 [5]: 14 µM (inactive)
GI50 [6]: 36.7 µM (inactive)
GI50 [7]: 23.1 µM (inactive)
GI50 [8]: 12.1 µM (inactive)
GI50 [9]: 17.3 µM (inactive)
GI50 [10]: 19.7 µM (inactive)
GI50 [11]: 11 µM (inactive)
GI50 [12]: 12.5 µM (inactive)
GI50 [13]: 19.3 µM
GI50 [14]: 16.5 µM (inactive)
GI50 [15]: 13.1 µM (inactive)
GI50 [16]: 14.5 µM (inactive)
GI50 [17]: 17.5 µM (inactive)
GI50 [18]: 15.6 µM (inactive)
GI50 [19]: 23.4 µM (inactive)
GI50 [20]: 13.8 µM (inactive)
GI50 [21]: 21.2 µM (inactive)
GI50 [22]: 16.7 µM (inactive)
GI50 [23]: 19.8 µM (inactive)
GI50 [24]: 20.7 µM (inactive)
GI50 [25]: 12.5 µM (inactive)
GI50 [26]: 10.4 µM (inactive)
GI50 [27]: 17.7 µM (inactive)
GI50 [28]: 14 µM (inactive)
GI50 [29]: 16.1 µM (inactive)
GI50 [30]: 16.3 µM (inactive)
GI50 [31]: 19.2 µM (inactive)
GI50 [32]: 7.78 µM (inactive)
GI50 [34]: 14.1 µM (inactive)
GI50 [35]: 18 µM (inactive)
GI50 [36]: 18 µM (inactive)
GI50 [38]: 16.7 µM (inactive)
GI50 [39]: 15.4 µM (inactive)
GI50 [40]: 17.3 µM (inactive)
GI50 [41]: 18.9 µM (inactive)
GI50 [42]: 17.8 µM (inactive)
GI50 [43]: 0.02 µM (active)
GI50 [44]: 17.9 µM (inactive)
GI50 [59]: 23.4 µM (inactive)
GI50 [45]: 7.98 µM (inactive)
GI50 [46]: 8.55 µM (inactive)
GI50 [47]: 19.8 µM (inactive)
GI50 [48]: 23 µM (inactive)
GI50 [49]: 16 µM (inactive)
GI50 [50]: 22.9 µM (inactive)
GI50 [51]: 14.8 µM (inactive)
GI50 [52]: > 10 µM (inactive)
GI50 [53]: 12.9 µM (inactive)
GI50 [54]: 12 µM (inactive)
GI50 [55]: 14.9 µM (inactive)
GI50 [56]: 20.6 µM (inactive)
GI50 [57]: 25.9 µM (inactive)
